Experiments:
eggs of Panonychus citri = assay: Effect on hatching of eggs of Panonychus citri, leaf disc method; type: in vivo; settings: 1 ppm; for Hatching rate (%), Replicate 1 / Hatching rate (%), Replicate 2 / Hatching rate (%), Replicate 3 / Number of hatched larvae 5 days after insecticide delivery, Replicate 1 / Number of hatched larvae 5 days after insecticide delivery, Replicate 2 / Number of hatched larvae 5 days after insecticide delivery, Replicate 3: Panonychus citri eggs; for Hatching rate (%), Replicate 1 / Hatching rate (%), Replicate 2 / Hatching rate (%), Replicate 3: 5 days after delivery; for Number of hatched larvae 5 days after insecticide delivery, Replicate 1 / Number of hatched larvae 5 days after insecticide delivery, Replicate 2 / Number of hatched larvae 5 days after insecticide delivery, Replicate 3: leaf disc
[1] = test system: eggs of Spodoptera litura; assay: Effect on hatching of eggs of Spodoptera litura, egg piece soaking; type: in vivo; settings: 500 ppm; for Hatching rate (%), Replicate 1 / Hatching rate (%), Replicate 2 / Hatching rate (%), Replicate 3 / Number of unhatched larvae 4 days after insecticide delivery, Replicate 1 / Number of unhatched larvae 4 days after insecticide delivery, Replicate 2 / Number of unhatched larvae 4 days after insecticide delivery, Replicate 3: Spodoptera litura eggs; for Hatching rate (%), Replicate 1 / Hatching rate (%), Replicate 2 / Hatching rate (%), Replicate 3: 4 days after delivery; for Number of unhatched larvae 4 days after insecticide delivery, Replicate 1 / Number of unhatched larvae 4 days after insecticide delivery, Replicate 2 / Number of unhatched larvae 4 days after insecticide delivery, Replicate 3: soaked 10 minutes
How it was run: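 Egg pieces of about 60 eggs were soaked 10 min in test agent at 500 ppm, blotted, then held singly at 24±1 °C, 80±10% RH, 12:12 L:D. Hatched and unhatched eggs were counted on day 4 to give hatching rate and control effect; 3 replicates.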

Row | SMILES | inhibitory effect on the hatching of eggs of Panonychus citri (in words) (eggs of Panonychus citri) | Hatching rate (%), Replicate 1 (eggs of Panonychus citri) [%] | Hatching rate (%), Replicate 2 (eggs of Panonychus citri) [%] | Hatching rate (%), Replicate 3 (eggs of Panonychus citri) [%] | Number of hatched larvae 5 days after insecticide delivery, Replicate 1 (eggs of Panonychus citri) | Number of hatched larvae 5 days after insecticide delivery, Replicate 2 (eggs of Panonychus citri) | Number of hatched larvae 5 days after insecticide delivery, Replicate 3 (eggs of Panonychus citri) | Hatching rate (%), Replicate 1 [1] [%] | Hatching rate (%), Replicate 2 [1] [%] | Hatching rate (%), Replicate 3 [1] [%] | Number of unhatched larvae 4 days after insecticide delivery, Replicate 1 [1] | Number of unhatched larvae 4 days after insecticide delivery, Replicate 2 [1] | Number of unhatched larvae 4 days after insecticide delivery, Replicate 3 [1] | further results
1 | CC(COc1ccc(Cl)cc1Cl)OS(=O)OCCF (stereo not shown) [Compound 1′] | good inhibitory effects | 0.93 | 0.00 | 0.00 | 1 | 0 | 0 | 40.68 | 40.32 | 39.06 | 35 | 37 | 39 | 
2 | CC(C)(COc1ccc(Cl)cc1Cl)OS(=O)OCCF (stereo not shown) [Compound R-10] |  | 9.65 | 9.78 | 10.37 | 11 | 9 | 14 | 60.87 | 64.15 | 62.07 | 27 | 19 | 22 | 
3 | CC[C@H](COS(=O)OCCF)Oc1ccc(Cl)cc1Cl (stereo partly drawn) [19′-(R,S)] |  | 10.43 | 10.42 | 9.57 | 12 | 10 | 9 | 51.67 | 50.77 | 50.00 | 30 | 32 | 27 | 
4 | CCC(COc1ccc(Cl)cc1Cl)OS(=O)OCCF (stereo not shown) [Compound 19] | good inhibitory effects | 0.00 | 0.00 | 0.00 | 0 | 0 | 0 | 29.41 | 30.16 | 29.82 | 36 | 44 | 40 | 
5 | C[C@@H](COS(=O)OCCF)Oc1ccc(Cl)cc1Cl (stereo partly drawn) [1-(S,R)] |  |  |  |  |  |  |  |  |  |  |  |  |  | Hatching rate (%), Replicate 1 (eggs of Panonychus citri; listed as 1-(S, R)): 5.83%; Hatching rate (%), Replicate 2 (eggs of Panonychus citri; listed as 1-(S, R)): 5.75%; Hatching rate (%), Replicate 3 (eggs of Panonychus citri; listed as 1-(S, R)): 6.06%; Number of hatched larvae 5 days after insecticide delivery, Replicate 1 (eggs of Panonychus citri; listed as 1-(S, R)): 6; Number of hatched larvae 5 days after insecticide delivery, Replicate 2 (eggs of Panonychus citri; listed as 1-(S, R)): 5; Number of hatched larvae 5 days after insecticide delivery, Replicate 3 (eggs of Panonychus citri; listed as 1-(S, R)): 8; Hatching rate (%), Replicate 1 ([1]; listed as 1-(S, R)): 62.30%; Hatching rate (%), Replicate 2 ([1]; listed as 1-(S, R)): 63.08%; Hatching rate (%), Replicate 3 ([1]; listed as 1-(S, R)): 60.34%; Number of unhatched larvae 4 days after insecticide delivery, Replicate 1 ([1]; listed as 1-(S, R)): 23; Number of unhatched larvae 4 days after insecticide delivery, Replicate 2 ([1]; listed as 1-(S, R)): 24; Number of unhatched larvae 4 days after insecticide delivery, Replicate 3 ([1]; listed as 1-(S, R)): 23
6 | CC(COc1ccc(Cl)cc1Cl)OS(=O)OCCF [1′-(R,S)] | good inhibitory effects |  |  |  |  |  |  |  |  |  |  |  |  | Hatching rate (%), Replicate 1 (eggs of Panonychus citri; listed as 1′-(R, S)): 0.00%; Hatching rate (%), Replicate 2 (eggs of Panonychus citri; listed as 1′-(R, S)): 0.00%; Hatching rate (%), Replicate 3 (eggs of Panonychus citri; listed as 1′-(R, S)): 0.00%; Number of hatched larvae 5 days after insecticide delivery, Replicate 1 (eggs of Panonychus citri; listed as 1′-(R, S)): 0; Number of hatched larvae 5 days after insecticide delivery, Replicate 2 (eggs of Panonychus citri; listed as 1′-(R, S)): 0; Number of hatched larvae 5 days after insecticide delivery, Replicate 3 (eggs of Panonychus citri; listed as 1′-(R, S)): 0; inhibitory activity on the hatching of eggs of Spodoptera litura (in words) [1]: good inhibitory activities; Hatching rate (%), Replicate 1 ([1]; listed as 1′-(R, S)): 28.33%; Hatching rate (%), Replicate 2 ([1]; listed as 1′-(R, S)): 25.00%; Hatching rate (%), Replicate 3 ([1]; listed as 1′-(R, S)): 20.34%; Number of unhatched larvae 4 days after insecticide delivery, Replicate 1 ([1]; listed as 1′-(R, S)): 43; Number of unhatched larvae 4 days after insecticide delivery, Replicate 2 ([1]; listed as 1′-(R, S)): 48; Number of unhatched larvae 4 days after insecticide delivery, Replicate 3 ([1]; listed as 1′-(R, S)): 47
7 | CC(C)(COS(=O)OCCF)Oc1ccc(Cl)cc1Cl (stereo not shown) [Compound 10′] | good inhibitory effects | 0.00 | 0.73 | 0.92 | 0 | 1 | 1 | 40.63 | 41.94 | 42.37 | 38 | 36 | 34 | 
8 | CC[C@H](COc1ccc(Cl)cc1Cl)OS(=O)OCCF (stereo partly drawn) [19-(R,S)] | good inhibitory effects | 0.00 | 0.00 | 0.00 | 0 | 0 | 0 | 15.63 | 15.25 | 16.67 | 54 | 50 | 50 | inhibitory activity on the hatching of eggs of Spodoptera litura (in words) [1]: good inhibitory activities
9 | C[C@H](COS(=O)OCCF)Oc1ccc(Cl)cc1Cl (stereo partly drawn) [1-(R,S)] |  |  |  |  |  |  |  |  |  |  |  |  |  | Hatching rate (%), Replicate 1 (eggs of Panonychus citri; listed as 1-(R, S)): 7.14%; Hatching rate (%), Replicate 2 (eggs of Panonychus citri; listed as 1-(R, S)): 8.39%; Hatching rate (%), Replicate 3 (eggs of Panonychus citri; listed as 1-(R, S)): 8.14%; Number of hatched larvae 5 days after insecticide delivery, Replicate 1 (eggs of Panonychus citri; listed as 1-(R, S)): 7; Number of hatched larvae 5 days after insecticide delivery, Replicate 2 (eggs of Panonychus citri; listed as 1-(R, S)): 12; Number of hatched larvae 5 days after insecticide delivery, Replicate 3 (eggs of Panonychus citri; listed as 1-(R, S)): 7; Hatching rate (%), Replicate 1 ([1]; listed as 1-(R, S)): 64.18%; Hatching rate (%), Replicate 2 ([1]; listed as 1-(R, S)): 61.40%; Hatching rate (%), Replicate 3 ([1]; listed as 1-(R, S)): 60.34%; Number of unhatched larvae 4 days after insecticide delivery, Replicate 1 ([1]; listed as 1-(R, S)): 25; Number of unhatched larvae 4 days after insecticide delivery, Replicate 2 ([1]; listed as 1-(R, S)): 22; Number of unhatched larvae 4 days after insecticide delivery, Replicate 3 ([1]; listed as 1-(R, S)): 23

Reference: US20260184675A1, “CHIRAL ISOMERIC SULFITE COMPOUND AND APPLICATION THEREOF” (Chengdu Hanova BioSciences Co., Ltd, priority 2024, published 2026)
